Experimental data published in patent US9850283B2, “Macrocyclic inhibitors of the PD-1/PD-L1 and CD80(B7-1)/PD-L1 protein/protein interactions” (BRISTOL-MYERS SQUIBB COMPANY, priority 2013, dated 2017).
Positions of bridges follow the written chain, without caps; N, C: chain ends. Non-standard residues stand in square brackets, D forms with d. Residues, ends and D or L forms follow the SMILES beside them. Ala(indol-4-yl) = N[C@@H](Cc1cccc2[nH]ccc12)C(=O)O; Phe(4-Cl) = N[C@@H](Cc1ccc(Cl)cc1)C(=O)O; Bta = N[C@@H](Cc1csc2ccccc12)C(=O)O; Hyp = O=C(O)[C@@H]1C[C@@H](O)CN1; NMeNle = CCCC[C@H](NC)C(=O)O; NMeA = CN[C@@H](C)C(=O)O; Dap = NC[C@H](N)C(=O)O; Aib = CC(C)(N)C(=O)O; Sar = CNCC(=O)O

Columns and labels:
[1] = target: T1, LK35.2-hPD-L1 cells / PE-labeled PD-1-Ig (Homo sapiens, UniProt Q9NZQ7); assay: LK35.2-hPD-L1 cell binding high-content screening assay; type: cell-based; settings: cluster symbol; cell line of CBA not given (LK35.2-hPD-L1 or 293T-hPD-L1); read-out: CBA IC50 cluster
T1 construct: expressed in transfected cells; host or cells: LK35.2 mouse B cell line
Outline: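 Mouse LK35.2 B cells stably overexpressing human PD-L1 were cultured overnight in RPMI with 10% FCS, then given compound and PE-labeled human PD-1-Ig (1 nM final) for 1 h at 37 °C. After three dPBS washes, bound fluorescence was quantified by high-content imaging.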

[2] = target: T2, Human PD-L1/PD-1 (Homo sapiens, UniProt Q9NZQ7); assay: HTRF PD-1-Ig/PD-L1-His binding assay (human PD-L1); settings: cluster symbol; read-out: HTRF IC50 cluster
T2 construct: made in house; host or cells: HEK293T
Outline: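 HTRF read-out: Eu cryptate anti-Ig mAb 1 nM final, APC anti-His mAb 20 nM final, added over the binding reaction. Proteins were PD-1-Ig and PD-L1-His ectodomain fusions. Buffer was dPBS, 0.1% BSA, 0.05% Tween-20.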

T2 sequence (Q9NZQ7 with tags, fused parts or gaps): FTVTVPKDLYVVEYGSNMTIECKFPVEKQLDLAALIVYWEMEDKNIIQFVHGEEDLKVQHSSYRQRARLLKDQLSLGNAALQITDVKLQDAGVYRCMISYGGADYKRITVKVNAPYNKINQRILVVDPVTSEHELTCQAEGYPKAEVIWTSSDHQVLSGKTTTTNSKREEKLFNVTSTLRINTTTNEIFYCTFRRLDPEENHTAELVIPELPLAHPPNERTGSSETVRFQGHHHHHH
T1 sequence (Q9NZQ7 19-290): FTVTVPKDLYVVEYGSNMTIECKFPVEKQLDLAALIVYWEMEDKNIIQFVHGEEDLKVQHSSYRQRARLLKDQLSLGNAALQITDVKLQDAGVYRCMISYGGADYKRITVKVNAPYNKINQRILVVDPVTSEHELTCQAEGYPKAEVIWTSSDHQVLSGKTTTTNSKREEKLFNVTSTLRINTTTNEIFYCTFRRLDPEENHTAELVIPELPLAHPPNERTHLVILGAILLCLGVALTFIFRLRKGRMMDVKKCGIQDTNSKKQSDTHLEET

Row | SMILES | IC50 [1] [nM] | IC50 [2] [nM]
1 | CCCC[C@H]1C(=O)N(C)[C@@H](CCCC)C(=O)N[C@@H](CCCNC(=N)N)C(=O)N[C@H](C(=O)NCC(N)=O)CSCC(=O)N[C@@H](Cc2ccc(O)cc2)C(=O)N(C)[C@@H](C)C(=O)N[C@@H](CC(N)=O)C(=O)N2CCC[C@H]2C(=O)N[C@@H](CN)C(=O)N[C@@H](CC(C)C)C(=O)N2CCC[C@H]2C(=O)N[C@@H](Cc2c[nH]c3ccccc23)C(=O)N[C@@H](CO)C(=O)N[C@@H](Cc2c[nH]c3ccccc23)C(=O)N1C [Example 1113] ({CH2CO}-Y[NMeA]NP[Dap]LPWSW[NMeNle][NMeNle]RCG-NH2; thioether N-14) | 0.158 to 4.71 | 0.385 to 6.74
2 | CCCC[C@H]1C(=O)N(C)[C@@H](CCCC)C(=O)N[C@@H](CCCNC(=N)N)C(=O)N[C@H](C(=O)NCC(N)=O)CSCC(=O)N[C@@H](Cc2ccc(O)cc2)C(=O)N(C)[C@@H](C)C(=O)N[C@@H](CC(N)=O)C(=O)N2CCC[C@H]2C(=O)N[C@@H](CN)C(=O)N[C@@H](CC(C)C)C(=O)N2C[C@H](O)C[C@H]2C(=O)N[C@@H](Cc2c[nH]c3ccccc23)C(=O)N[C@@H](CO)C(=O)N[C@@H](Cc2c[nH]c3ccccc23)C(=O)N1C [Example 1114] ({CH2CO}-Y[NMeA]NP[Dap]L[Hyp]WSW[NMeNle][NMeNle]RCG-NH2; thioether N-14) | 0.158 to 4.71 | 6.76 to 30.3
3 | CCCC[C@H]1C(=O)N(C)[C@@H](CCCC)C(=O)N[C@@H](CCCNC(=N)N)C(=O)N[C@H](C(=O)NCC(N)=O)CSCC(=O)N[C@@H](Cc2ccc(O)cc2)C(=O)N(C)[C@@H](C)C(=O)N[C@@H](CC(N)=O)C(=O)N2CCC[C@H]2C(=O)N[C@@H](Cc2cnc[nH]2)C(=O)N[C@@H](CCC(=O)O)C(=O)N2CCC[C@H]2C(=O)N[C@@H](Cc2c[nH]c3ccccc23)C(=O)N[C@@H](CO)C(=O)N[C@@H](Cc2csc3ccccc23)C(=O)N1C [Example 1115] ({CH2CO}-Y[NMeA]NPHEPWS[Bta][NMeNle][NMeNle]RCG-NH2; thioether N-14) | 0.158 to 4.71 | 0.385 to 6.74
4 | CCCC[C@H]1C(=O)N(C)[C@@H](CCCC)C(=O)N[C@@H](CCCNC(=N)N)C(=O)N[C@H](C(=O)NCC(N)=O)CSCC(=O)N[C@@H](Cc2ccccc2)C(=O)N(C)[C@@H](C)C(=O)N[C@@H](CC(N)=O)C(=O)N2CCC[C@H]2C(=O)N[C@@H](Cc2cnc[nH]2)C(=O)N[C@@H](CC(C)C)C(=O)N(C)CC(=O)N[C@@H](Cc2c[nH]c3ccccc23)C(=O)NC(C)(C)C(=O)N[C@@H](Cc2c[nH]c3ccccc23)C(=O)N1C [Example 1116] ({CH2CO}-F[NMeA]NPHL[Sar]W[Aib]W[NMeNle][NMeNle]RCG-NH2; thioether N-14) | > 74.3 | > 30.5
5 | CCCC[C@H]1C(=O)N(C)[C@@H](CCCC)C(=O)N[C@@H](CCCNC(=N)N)C(=O)N[C@H](C(=O)NCC(N)=O)CSCC(=O)N[C@@H](Cc2ccc(Cl)cc2)C(=O)N(C)[C@@H](C)C(=O)N[C@@H](CC(N)=O)C(=O)N2CCC[C@H]2C(=O)N[C@@H](Cc2cnc[nH]2)C(=O)N[C@@H](CC(C)C)C(=O)N2CCC[C@H]2C(=O)N[C@@H](Cc2c[nH]c3ccccc23)C(=O)N[C@@H](CO)C(=O)N[C@@H](Cc2c[nH]c3ccccc23)C(=O)N1C [Example 1117] ({CH2CO}-[Phe(4-Cl)][NMeA]NPHLPWSW[NMeNle][NMeNle]RCG-NH2; thioether N-14) | 4.78 to 72.9 | 6.76 to 30.3
6 | CCCC[C@H]1C(=O)N(C)[C@@H](CCCC)C(=O)N[C@@H](CCCNC(=N)N)C(=O)N[C@H](C(=O)NCC(N)=O)CSCC(=O)N[C@@H](Cc2ccc(O)cc2)C(=O)N(C)[C@@H](C)C(=O)N[C@@H](CC(N)=O)C(=O)N2CCC[C@H]2C(=O)N[C@@H](CN)C(=O)N[C@@H](CC(C)C)C(=O)N2C[C@H](O)C[C@H]2C(=O)N[C@@H](Cc2c[nH]c3ccccc23)C(=O)N[C@@H](CO)C(=O)N[C@@H](Cc2csc3ccccc23)C(=O)N1C [Example 1118] ({CH2CO}-Y[NMeA]NP[Dap]L[Hyp]WS[Bta][NMeNle][NMeNle]RCG-NH2; thioether N-14) | 0.158 to 4.71 | 6.76 to 30.3
7 | CCCC[C@H]1C(=O)N(C)[C@@H](CCCC)C(=O)N[C@@H](CCCNC(=N)N)C(=O)N[C@H](C(=O)NCC(N)=O)CSCC(=O)N[C@@H](Cc2ccc(O)cc2)C(=O)N(C)[C@@H](C)C(=O)N[C@@H](CC(N)=O)C(=O)N2CCC[C@H]2C(=O)N[C@@H](Cc2cnc[nH]2)C(=O)N[C@@H](CC(C)C)C(=O)N2C[C@H](O)C[C@H]2C(=O)N[C@@H](Cc2c[nH]c3ccccc23)C(=O)N[C@@H](CO)C(=O)N[C@@H](Cc2c[nH]c3ccccc23)C(=O)N1C [Example 1119] | 0.158 to 4.71 | 6.76 to 30.3
8 | CCCC[C@H]1C(=O)N(C)[C@@H](CCCC)C(=O)N[C@@H](CCCNC(=N)N)C(=O)N[C@H](C(=O)NCC(N)=O)CSCC(=O)N[C@@H](Cc2cccc3[nH]ccc23)C(=O)N(C)[C@@H](C)C(=O)N[C@@H](CC(N)=O)C(=O)N2CCC[C@H]2C(=O)N[C@@H](Cc2cnc[nH]2)C(=O)N[C@@H](CC(C)C)C(=O)N2CCC[C@H]2C(=O)N[C@@H](Cc2c[nH]c3ccccc23)C(=O)N[C@@H](CO)C(=O)N[C@@H](Cc2csc3ccccc23)C(=O)N1C [Example 1120] ({CH2CO}-[Ala(indol-4-yl)][NMeA]NPHLPWS[Bta][NMeNle][NMeNle]RCG-NH2; thioether N-14) | 0.158 to 4.71 | 6.76 to 30.3
9 | CCCC[C@H]1C(=O)N(C)[C@@H](CCCC)C(=O)N[C@@H](C)C(=O)N[C@H](C(=O)NCC(N)=O)CSCC(=O)N[C@@H](Cc2ccc(O)cc2)C(=O)N(C)[C@@H](C)C(=O)N[C@@H](CC(=O)O)C(=O)N2CCC[C@H]2C(=O)N[C@@H](Cc2cnc[nH]2)C(=O)N[C@@H](CC(C)C)C(=O)N2CCC[C@H]2C(=O)N[C@@H](Cc2c[nH]c3ccccc23)C(=O)N[C@@H](CO)C(=O)N[C@@H](Cc2c[nH]c3ccccc23)C(=O)N1C [Example 1121] ({CH2CO}-Y[NMeA]DPHLPWSW[NMeNle][NMeNle]ACG-NH2; thioether N-14) | 0.158 to 4.71 | 6.76 to 30.3
10 | CCCC[C@H]1C(=O)N(C)[C@@H](CCCC)C(=O)N[C@@H](CCCNC(=N)N)C(=O)N[C@H](C(=O)NCC(N)=O)CSCC(=O)N[C@@H](Cc2ccc(O)cc2)C(=O)N(C)[C@@H](C)C(=O)N[C@@H](CC(=O)O)C(=O)N2CCC[C@H]2C(=O)N[C@@H](Cc2cnc[nH]2)C(=O)N[C@@H](CC(C)C)C(=O)N2CCC[C@H]2C(=O)N[C@@H](Cc2c[nH]c3ccccc23)C(=O)N[C@@H](CO)C(=O)N[C@@H](Cc2c[nH]c3ccccc23)C(=O)N1C [Example 1122] ({CH2CO}-Y[NMeA]DPHLPWSW[NMeNle][NMeNle]RCG-NH2; thioether N-14) | 0.158 to 4.71 | 6.76 to 30.3
11 | CCCC[C@H]1C(=O)N(C)[C@@H](CCCC)C(=O)N[C@@H](CCCN)C(=O)N[C@H](C(=O)NCC(N)=O)CSCC(=O)N[C@@H](Cc2ccc(O)cc2)C(=O)N(C)[C@@H](C)C(=O)N[C@@H](CC(N)=O)C(=O)N2CCC[C@H]2C(=O)N[C@@H](Cc2cnc[nH]2)C(=O)N[C@@H](CC(C)C)C(=O)N2C[C@H](O)C[C@H]2C(=O)N[C@@H](Cc2c[nH]c3ccccc23)C(=O)N[C@@H](CO)C(=O)N[C@@H](Cc2c[nH]c3ccccc23)C(=O)N1C [Example 1123] | 0.158 to 4.71 | 0.385 to 6.74
12 | CCCC[C@H]1C(=O)N(C)[C@@H](CCCC)C(=O)N[C@@H](CCCNC(=N)N)C(=O)N[C@H](C(=O)NCC(N)=O)CSCC(=O)N[C@@H](Cc2ccc(Cl)cc2)C(=O)N(C)[C@@H](C)C(=O)N[C@@H](CC(N)=O)C(=O)N2CCC[C@H]2C(=O)N[C@@H](Cc2cnc[nH]2)C(=O)N[C@@H](CC(C)C)C(=O)N2CCC[C@H]2C(=O)N[C@@H](Cc2c[nH]c3ccccc23)C(=O)N[C@@H](CO)C(=O)N[C@@H](Cc2csc3ccccc23)C(=O)N1C [Example 1124] ({CH2CO}-[Phe(4-Cl)][NMeA]NPHLPWS[Bta][NMeNle][NMeNle]RCG-NH2; thioether N-14) | 4.78 to 72.9 | 6.76 to 30.3
13 | CCCC[C@H]1C(=O)N(C)[C@@H](CCCC)C(=O)N[C@@H](CCCNC(=N)N)C(=O)N[C@H](C(=O)NCC(N)=O)CSCC(=O)N[C@@H](Cc2ccc(O)cc2)C(=O)N(C)[C@@H](C)C(=O)N[C@@H](CC(N)=O)C(=O)N2CCC[C@H]2C(=O)N[C@@H](Cc2cnc[nH]2)C(=O)N[C@@H](CC(C)C)C(=O)N2CC(F)(F)C[C@H]2C(=O)N[C@@H](Cc2c[nH]c3ccccc23)C(=O)N[C@@H](CO)C(=O)N[C@@H](Cc2c[nH]c3ccccc23)C(=O)N1C [Example 1126] | 0.158 to 4.71 | 6.76 to 30.3
14 | CCCC[C@H]1C(=O)N(C)[C@@H](CCCC)C(=O)N[C@@H](CCCNC(=N)N)C(=O)N[C@H](C(=O)NCC(N)=O)CSCC(=O)N[C@@H](Cc2ccc(O)cc2)C(=O)N(C)[C@@H](C)C(=O)N[C@@H](CC(N)=O)C(=O)N2CCC[C@H]2C(=O)N[C@@H](CN)C(=O)N[C@@H](CCC(=O)O)C(=O)N2CCC[C@H]2C(=O)N[C@@H](Cc2c[nH]c3ccccc23)C(=O)N[C@@H](CO)C(=O)N[C@@H](Cc2csc3ccccc23)C(=O)N1C [Example 1127] ({CH2CO}-Y[NMeA]NP[Dap]EPWS[Bta][NMeNle][NMeNle]RCG-NH2; thioether N-14) | 0.158 to 4.71 | 0.385 to 6.74
15 | CCCC[C@H]1C(=O)N(C)[C@@H](CCCC)C(=O)N[C@@H](CCCNC(=N)N)C(=O)N[C@H](C(=O)NCC(N)=O)CSCC(=O)N[C@@H](Cc2ccc(O)cc2)C(=O)N(C)[C@@H](C)C(=O)N[C@@H](CC(N)=O)C(=O)N2CCC[C@H]2C(=O)N[C@@H](CN)C(=O)N[C@@H](CCC(=O)O)C(=O)N2C[C@H](O)C[C@H]2C(=O)N[C@@H](Cc2c[nH]c3ccccc23)C(=O)N[C@@H](CO)C(=O)N[C@@H](Cc2csc3ccccc23)C(=O)N1C [Example 1128] ({CH2CO}-Y[NMeA]NP[Dap]E[Hyp]WS[Bta][NMeNle][NMeNle]RCG-NH2; thioether N-14) | 0.158 to 4.71 | 6.76 to 30.3
